Measurements published in patent US12558351B2, “Compositions and methods for enhancing cancer immune checkpoint therapy” (DUKE UNIVERSITY, priority 2019, dated 2026).

What was measured:
ATM kinase = ATM kinase (Homo sapiens, UniProt Q13315); conditions: Durant et al. Sci Adv 2018; cited from earlier work
B16F10 melanoma = test: Tumor growth delay and survival, B16F10 melanoma in C57BL/6 mice; type: in vivo, mouse
Procedure: (§1) All animal experiments conducted in this study were approved by Duke University Institutional Animal Use and Care Committee. C57BL/6J and Balb/C, mice were purchased from The Jackson Laboratory. NSG mice were purchased from Division of Laboratory Animal Resources (DLAR) of Duke University. Prior to tumor cell injection, age-matched 6-8 weeks old mice were shaved at one of the flanks. Tumor cells were then injected into shaved flanks subcutaneously with Lenti-CRISPRv2 modified control or target gene-specific knockout tumor cells. Tumor volumes were measured every 2-3 days and calculated by the formula: […]. The mice were sacrificed when tumors reached 2000 mm^3.
(§2) For antibody treatments, mice were given 100 μg antibody via intraperitoneal (i.p.) injection at day 6, 9, 12 post tumor cells injection using following antibodies: anti-PD1 (clone 29F.1A12) or isotype (clone 2A3) from BioXCell.

p-TBK [1] = test: Western blot of p-TBK in B16 cells; type: cell-based, mouse
Procedure: (§3) Cells lysates were boiled in sodium dodecyl sulfate (SDS) sample loading buffer, resolved by 10% SDS-polyacrylamide gel electrophoresis (SDS-PAGE) and transferred to nitrocellulose. The membranes were blocked in 5% milk in Tris-buffered saline and Tween 20 (TBST; 10 mM Tris-HCl [pH 8.0], 150 mM NaCl, 0.1% Tween 20) for 1 hr at room temperature. After washing twice with TBST, the membranes were incubated with appropriate primary antibodies in BSA/TBST for overnight and then washed three times with TBST, probed with horseradish […] anti-immunoglobulin (1:5000 dilution) for 1 hr at room temperature. After three washes with TBST, immunoreacted products were visualized using enhanced chemiluminescence reagent and autoradiography.

glioma = conditions: preclinical models; Durant et al. Sci Adv 2018; cited from earlier work
4T1 tumor = test: Tumor growth delay and survival, 4T1 tumors in Balb/c mice; type: in vivo; conditions: 4T1, Balb/c; anti-PD1 100 μg/mouse days 6, 9, 12 or AZD1390 10 mg/kg daily days 4-14; FIGS. 27, 28
Procedure: as §1, §2

ISGs = test: qRT-PCR of ISGs in B16F10 cells; type: cell-based, mouse
Procedure: (§4) Total RNA was extracted from cells by use of RNeasy Mini Kit (Qiagen) according to manufacturer's instructions. RNA was subjected to cDNA synthesis with random hexamer primers using Superscript II reverse transcriptase (Invitrogen). Quantitative real-time PCR was performed using Quanti Test SYBR Green PCR Master Mix Kit (Qiagen). Primers used for different target genes are listed in the Sequences section herein.

cGAS-STING = test: Ethidium bromide mtDNA depletion, cGAS-STING activation in B16F10 cells; type: cell-based, mouse; conditions: wild-type B16F10, 100 ng/ml ethidium bromide 20 days, then 1 μM AZD1390 48 hr; FIG. 103
Procedure: as §3
A previously published protocol was used (White, M. J. et al. Cell (2014) doi:10.1016/j.cell1.2014.11.036). Vector control, ATM KO and wild-type B16 cells were cultured in Dulbecco's modified Eagle's medium (DMEM) with 10% FBS. About 100 ng/ml ethidium bromide was added to the medium for 20 days before the cells were harvested for experiments.
Total RNA was extracted from cells by use of RNeasy Mini Kit (Qiagen) according to manufacturer's instructions. […] Quantitative real-time PCR was performed using Quanti Test SYBR Green PCR Master Mix Kit (Qiagen). […]

[2] = system: mitochondrial DNA (mtDNA) release; test: Q-PCR of mtDNA in digitonin cytosolic extracts of B16F10 cells; type: cell-based, mouse; conditions: 1 μM AZD1390 for 48 hours, FIGS. 59, 60
[3] = system: pro-inflammatory cytokine genes involved in cellular innate immunity; test: Q-RT-PCR of cytokine mRNA in wild type 4T1 cells treated with ATM inhibitors; type: cell-based, mouse; conditions: FIG. 10
Procedure: as §4

p-TBK [4] = test: Western blot of p-TBK in MDA-MB-231 cells; type: cell-based; conditions: human MDA-MB-231 cells, Ku55933 for 6 hours; FIG. 91
Procedure: as §3

Chain of ATM kinase (Q13315 whole entry): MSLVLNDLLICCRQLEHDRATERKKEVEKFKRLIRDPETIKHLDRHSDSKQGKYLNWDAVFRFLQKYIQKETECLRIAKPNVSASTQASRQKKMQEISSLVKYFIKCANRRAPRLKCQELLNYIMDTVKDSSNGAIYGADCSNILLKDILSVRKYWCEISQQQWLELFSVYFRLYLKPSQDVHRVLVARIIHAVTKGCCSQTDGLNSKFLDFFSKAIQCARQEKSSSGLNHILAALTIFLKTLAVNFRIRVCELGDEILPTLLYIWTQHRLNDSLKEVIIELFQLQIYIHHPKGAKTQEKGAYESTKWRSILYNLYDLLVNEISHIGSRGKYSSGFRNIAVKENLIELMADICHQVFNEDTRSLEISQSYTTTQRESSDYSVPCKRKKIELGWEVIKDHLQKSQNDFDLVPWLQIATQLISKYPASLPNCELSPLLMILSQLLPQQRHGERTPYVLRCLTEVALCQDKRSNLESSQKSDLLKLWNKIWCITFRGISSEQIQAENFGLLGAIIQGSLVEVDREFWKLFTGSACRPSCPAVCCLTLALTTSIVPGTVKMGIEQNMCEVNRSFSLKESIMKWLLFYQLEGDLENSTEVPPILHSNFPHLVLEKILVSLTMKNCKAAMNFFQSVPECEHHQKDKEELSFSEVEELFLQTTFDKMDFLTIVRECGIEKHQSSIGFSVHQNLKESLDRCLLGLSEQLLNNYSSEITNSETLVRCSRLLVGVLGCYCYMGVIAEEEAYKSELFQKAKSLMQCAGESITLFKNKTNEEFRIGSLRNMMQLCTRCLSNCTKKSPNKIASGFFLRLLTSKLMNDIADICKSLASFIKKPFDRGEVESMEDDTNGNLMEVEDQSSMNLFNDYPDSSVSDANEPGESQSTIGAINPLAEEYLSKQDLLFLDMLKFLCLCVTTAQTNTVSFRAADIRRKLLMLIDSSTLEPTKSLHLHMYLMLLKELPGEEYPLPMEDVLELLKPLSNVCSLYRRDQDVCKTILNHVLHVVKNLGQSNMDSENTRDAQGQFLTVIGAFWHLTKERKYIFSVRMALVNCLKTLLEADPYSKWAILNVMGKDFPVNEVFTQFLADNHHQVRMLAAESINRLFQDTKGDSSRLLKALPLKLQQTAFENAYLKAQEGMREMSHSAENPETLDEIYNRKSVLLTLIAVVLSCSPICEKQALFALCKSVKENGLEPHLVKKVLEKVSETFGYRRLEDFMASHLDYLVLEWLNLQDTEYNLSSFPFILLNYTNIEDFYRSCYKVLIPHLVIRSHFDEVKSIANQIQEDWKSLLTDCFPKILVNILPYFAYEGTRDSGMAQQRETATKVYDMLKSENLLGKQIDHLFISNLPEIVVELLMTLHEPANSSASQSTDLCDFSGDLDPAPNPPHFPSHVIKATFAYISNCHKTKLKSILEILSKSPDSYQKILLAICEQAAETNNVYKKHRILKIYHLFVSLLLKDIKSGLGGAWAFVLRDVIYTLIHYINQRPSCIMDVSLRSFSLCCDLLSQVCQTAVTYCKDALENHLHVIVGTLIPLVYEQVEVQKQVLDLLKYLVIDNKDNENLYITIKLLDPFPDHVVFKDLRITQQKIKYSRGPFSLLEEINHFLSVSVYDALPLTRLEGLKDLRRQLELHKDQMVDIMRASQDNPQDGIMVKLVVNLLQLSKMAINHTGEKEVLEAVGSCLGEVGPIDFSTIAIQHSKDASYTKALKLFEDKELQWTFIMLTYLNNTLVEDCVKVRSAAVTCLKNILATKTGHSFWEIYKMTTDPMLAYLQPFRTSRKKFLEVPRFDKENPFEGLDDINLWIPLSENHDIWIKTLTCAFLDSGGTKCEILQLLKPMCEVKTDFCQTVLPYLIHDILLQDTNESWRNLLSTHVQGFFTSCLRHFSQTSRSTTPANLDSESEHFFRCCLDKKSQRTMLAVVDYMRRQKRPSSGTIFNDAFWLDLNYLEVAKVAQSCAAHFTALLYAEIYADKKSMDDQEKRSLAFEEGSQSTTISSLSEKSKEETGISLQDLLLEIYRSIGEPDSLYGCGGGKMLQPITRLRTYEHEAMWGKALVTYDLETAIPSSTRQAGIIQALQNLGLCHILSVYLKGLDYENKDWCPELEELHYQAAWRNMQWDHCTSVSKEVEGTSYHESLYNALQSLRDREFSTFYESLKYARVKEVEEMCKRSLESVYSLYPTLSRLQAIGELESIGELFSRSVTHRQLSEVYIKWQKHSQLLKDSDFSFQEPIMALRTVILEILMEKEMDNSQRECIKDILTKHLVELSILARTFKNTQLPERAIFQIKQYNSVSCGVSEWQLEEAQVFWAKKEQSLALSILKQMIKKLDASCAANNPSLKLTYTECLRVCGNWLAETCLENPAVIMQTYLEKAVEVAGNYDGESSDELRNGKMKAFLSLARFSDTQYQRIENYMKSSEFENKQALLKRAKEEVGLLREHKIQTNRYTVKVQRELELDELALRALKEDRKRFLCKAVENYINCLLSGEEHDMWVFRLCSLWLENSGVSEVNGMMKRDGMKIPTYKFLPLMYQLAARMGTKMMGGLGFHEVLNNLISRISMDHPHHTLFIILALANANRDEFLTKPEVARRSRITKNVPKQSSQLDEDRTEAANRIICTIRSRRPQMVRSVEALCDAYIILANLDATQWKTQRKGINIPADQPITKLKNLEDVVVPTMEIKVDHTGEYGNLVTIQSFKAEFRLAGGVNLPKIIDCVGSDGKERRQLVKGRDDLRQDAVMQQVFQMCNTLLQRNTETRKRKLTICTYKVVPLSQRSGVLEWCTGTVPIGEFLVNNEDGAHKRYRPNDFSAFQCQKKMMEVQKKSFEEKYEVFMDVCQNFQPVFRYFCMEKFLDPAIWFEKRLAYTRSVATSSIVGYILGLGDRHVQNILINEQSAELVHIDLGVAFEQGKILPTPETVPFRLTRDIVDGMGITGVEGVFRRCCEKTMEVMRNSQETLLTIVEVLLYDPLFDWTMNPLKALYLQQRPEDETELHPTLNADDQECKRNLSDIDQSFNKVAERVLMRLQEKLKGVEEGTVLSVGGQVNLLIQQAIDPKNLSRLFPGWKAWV

Structure (SMILES) | ATM kinase inhibitor character (ATM kinase) | enhancement of anti-tumor efficacy of the anti-PD1 antibody (B16F10 melanoma; B16F10, C57BL/6, AZD1390 10 mg/kg daily days 4-14 plus anti-PD1 100 μg/mouse days 6, 9, 12, FIGS. 25, 26) | enhancement of tumor suppression mediated by an anti-PD1 antibody (B16F10 melanoma; B16F10 melanoma, anti-PD1 100 μg/mouse and AZD1390 2.5 mg/Kg, FIG. 11) | effect on tumor growth, single agent (B16F10 melanoma; B16F10 tumors, C57BL/6, AZD1390 alone 10 mg/kg daily days 4-14, FIG. 25) | phosphorylation of TBK (p-TBK [1]; AZD1390 at indicated concentrations for 48 hrs, FIG. 45) | enhancement of radiotherapy of glioma (glioma) | effect on tumor growth, single agent (4T1 tumor) | expression of ISGs (ISGs; 1 μM AZD1390 for 48 hrs, FIG. 46) | cGAS-STING activation (pTBK) induced by AZD1390 after EtBr-induced depletion of mtDNA (cGAS-STING) | mitochondrial DNA (mtDNA) release [2] | pro-inflammatory cytokine gene expression [3] | phosphorylation of TBK (p-TBK [1]; Ku55933 indicated concentrations 6 hours, or 5 μM at indicated times, FIGS. 88, 89) | expression of p-TBK (p-TBK [4]) | expression of ISGs (ISGs; 10 μM Ku55933 for 9 hours (IFIT1, CCL5), FIG. 90)
CC(C)n1c(=O)n(C)c2cnc3cc(F)c(-c4ccc(OCCCN5CCCCC5)nc4)cc3c21 [AZD1390] | potent and selective | significantly enhanced | significantly enhanced tumor suppression | almost negligible effect | induced increased phosphorylation of TBK | significantly enhanced radiotherapy of glioma | more significant tumor-suppressive effect | induced expression of ISGs | abrogated | induced mitochondrial DNA (mtDNA) release | induce the pro-inflammatory cytokine genes | – | – | –
O=c1cc(-c2cccc3c2Sc2ccccc2S3)oc(N2CCOCC2)c1 [Ku55933] | – | – | – | – | – | – | – | – | – | – | induce the pro-inflammatory cytokine genes | induced increased phosphorylation of TBK | induced expression of p-TBK | induced expression of ISGs
